Results on two compounds are retold here after patent publication US7105565B2 (dated 2006).

The compound `COCn1cc(C(=O)Nc2ccccc2C(C)CC(C)C)c(C(F)(F)F)c1` (centres unmarked) showed a melting point of 75 to 77 °C. Next, `CC(C)CC(C)c1ccccc1NC(=O)c1cn(C)cc1C(F)(F)F` (centres unmarked): 83 to 85 °C.

As a reminder, the melting point is the temperature, or range, at which the solid turns liquid.
